# Measurements: patent US20190359560A1, “ANTI-INFLAMMATORY DRUG AND USES THEREOF” (KYUSHU UNIVERSITY, NATIONAL UNIVERSITY CORPORATION, priority 2015, published 2019)
# Key:
# Ccl2 mRNA = Ccl2 mRNA in Hepa1-6 cells exposed to LPS or TNFα; type: cell-based, mouse; settings: 10 μM, 12 hours
# Method: Next, whether or not Compound No. 2 whose effect in vivo was confirmed has an effect to antagonize the activation of an inflammatory signal was examined. Hepa1-6 cells were exposed to Compound No. 2 at a dose of 10 μM simultaneously with exposure to lipopolysaccharide (LPS) or TNFα which activates NF-κB for which the G0S2 protein acts as a regulator. As shown in FIGS. 10A and 10B, the cells were recovered 12 hours after the exposure and the expression level of Ccl2 mRNA was measured. […] In addition, 25 μg of LPS was administered to the tail vein of a mouse to thereby construct a hepatitis model. 30 minutes after the administration of LPS, Compound No. 2 (5 mg/kg) was administered to the tail vein of the mouse, and the liver was sampled at 6 hours.
# [1] = Blood and liver concentration after oral administration (LC/MS/MS); type: in vivo, mouse; settings: mice, 15 mg/kg oral
# Method: Compound No. 2 (15 mg/kg) was orally administered to mice. Blood was collected at 0 minutes, 5 minutes, 15 minutes, 30 minutes, 1 hour, 2 hours, 4 hours, 6 hours and 12 hours after the administration of Compound No. 2 and the blood concentration of the compound was measured by LC/MS/MS. In addition, the liver was harvested at 0 minutes, 5 minutes, 15 minutes, 30 minutes, 1 hour and 6 hours after the administration of Compound No. 2, and the liver concentration of the compound was measured by LC/MS/MS.
# G0S2 protein [2] = assay: G0S2 protein in liver of normal mice; type: in vivo, mouse; settings: normal ICR male mice, 15 mg/kg subcutaneous, 4 hours and 6 hours after administration
# [3] = system: G0S2 transcriptional activity regulatory region; assay: Luciferase assay with G0S2 transcriptional activity regulatory regions of each length in NIH3T3 cells; type: cell-based, mouse; settings: NIH3T3 stable cells, 10 μM, 24 hours
# Method: Subsequently, these expression vectors were transfected into NIH3T3 cells, which are mouse fibroblast cells, to construct cells stably expressing luciferase.
# Subsequently, Compound No. 2 or DMSO (control) at a final concentration of 10 μM was added to the medium of each cell. Subsequently, the cells were recovered after 24 hours and the luciferase activity was measured.
# Bmal1 promoter = Bmal1 promoter luciferase assay in MEF cell line; type: cell-based; settings: MEF reporter cell line, 10 μM, 24 hours
# Method: Therefore, in order to exclude compounds having an effect on clock genes in normal cells, studies were conducted using the MEF cell line stably expressing an expression cassette in which a luciferase gene was ligated to the downstream side of the Bmal1 promoter.
# G0S2 protein [4] = assay: LPS-administered mice: G0S2 protein in liver (Western blotting); type: in vivo; settings: LPS 10 μg/mouse tail vein; 5 mg/kg subcutaneous 1 hour after LPS; liver 5 hours later; vs LPS group
# Method: LPS (10 μg/mouse) was administered to ICR male mice by tail vein injection to prepare an LPS-administered group. In addition, a mouse to which physiological saline was administered instead of LPS was prepared and used as a control group. Subsequently, the LPS-administered group was divided into two groups, in which 1 hour after the administration of LPS, Compound No. 2 was subcutaneously administered at a dose of 5 mg/kg to the dorsal region of mice of one group which was then served as an LPS+No. 2-administered group. Subsequently, 5 hours after the administration of Compound No. 2, mice of each group were sacrificed and the liver was harvested.
# Subsequently, the expression level of the G0S2 protein in the liver of mice of each group obtained was quantified by Western blotting. FIG. 11A is a graph showing the quantitative results of the G0S2 protein.
# G0S2 mRNA [5] = assay: G0S2 mRNA in liver of normal mice; type: in vivo, mouse; settings: normal ICR male mice, 15 mg/kg subcutaneous
# Method: An effect of Compound No. 2 with a lower IC50 value on the expression level of G0S2 mRNA in the liver of normal mice was examined. Compound No. 2 was subcutaneously administered on the dorsal region of ICR male mice at a dose of 15 mg/kg. The expression level of G0S2 mRNA in the liver at 30 minutes, 1, 2, 4, 6, 12, and 24 hours after the administration of Compound No. 2 was measured.
# G0S2 mRNA [6] = assay: G0S2 mRNA expression in Hepa1-6 cells (qRT-PCR); type: cell-based, mouse; settings: 48 hours
# Method: The effect of the compound on the expression level of mRNA of the G0S2 gene was evaluated for the three compounds extracted so far. 24 hours after seeding with Hepa1-6 cells, the cells were exposed to hit compounds at 10 μM and sampling and total RNA extraction were carried out 24 hours later. Subsequently, changes in the expression level of mRNA of the G0S2 gene were measured by a qRT-PCR method.
# Hepa1-6 cells were exposed to 10 μM of each of seven derivatives of Compound No. 2 (Examples 2 and 4 to 9) and an effect of the derivative compounds on the expression level of G0S2 mRNA after 24 hours was evaluated.
# Therefore, Hepa1-6 cells were exposed to Compound No. 2 and the compound of Example 2 (NS-3-011) in the range of 0.5 to 5 μM and an effect of the compounds on the expression level of endogenous G0S2 mRNA after 48 hours was evaluated.
# Subsequently, Hepa1-6 cells were transfected with siRNA against Hsd17b4 or control siRNA in the presence (10 μM) or absence (indicated as “DMSO” in FIG. 22B) of Compound No. 2. Subsequently, each cell was recovered after 48 hours and total RNA was extracted. Subsequently, the expression level of the G0S2 gene was quantified by real-time PCR.
smiles,measurement,setting,value
CCCCCCNC(=N)NCc1ccccc1 [Compound No. 2],expression of Ccl2 mRNA increased by LPS,Ccl2 mRNA; LPS 100 ng/mL,significantly inhibited
same,expression of Ccl2 mRNA increased by TNFα,Ccl2 mRNA; TNFα 200 ng/mL,significantly inhibited
same,time after administration at which concentration in blood was highest,[1],15 min
same,time after administration at which concentration in liver was highest,[1],5 min
same,expression level of G0S2 protein in the liver,G0S2 protein [2],significant decrease
same,effect of inhibiting the expression of luciferase when the STAT5/6 binding region disappears,[3],decreased
same,Bmal1 promoter activity,Bmal1 promoter,no significant change
same,expression of G0S2 protein in the liver,G0S2 protein [4],significantly inhibited
same,expression level of G0S2 mRNA in the liver,G0S2 mRNA [5]; 2 hours and 12 hours,significantly decreased
same,expression level of G0S2 mRNA in the liver,G0S2 mRNA [5]; 4 hours after administration,tended to decrease to about half
same,G0S2 mRNA expression level,"G0S2 mRNA [6]; 5 μM, vs DMSO",significant decrease
same,effect of lowering the expression level of the G0S2 gene after transfection with siRNA against Hsd17b4,G0S2 mRNA [6]; 10 μM,disappeared
same,expression level of the G0S2 gene,"G0S2 mRNA [6]; 10 μM, control siRNA",significantly decreased
